Laboratory results from ChEMBL document CHEMBL1201862, “PubChem BioAssay data set” (2004).
One block for each molecule: values may come before it. Activity calls are given as the source filed them.

How the values were obtained:
[1] = molecular target: T1, High affinity choline transporter 1 (Homo sapiens, UniProt Q9GZV3); test: CHT inhibitors, dose response, cell-based, 10-point CRC, membrane potential dye (AID 588401); assay type: functional;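 also: membrane potential dye fluorescence of choline-evoked depolarization via CHT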
T1 sequence (Q9GZV3 whole entry): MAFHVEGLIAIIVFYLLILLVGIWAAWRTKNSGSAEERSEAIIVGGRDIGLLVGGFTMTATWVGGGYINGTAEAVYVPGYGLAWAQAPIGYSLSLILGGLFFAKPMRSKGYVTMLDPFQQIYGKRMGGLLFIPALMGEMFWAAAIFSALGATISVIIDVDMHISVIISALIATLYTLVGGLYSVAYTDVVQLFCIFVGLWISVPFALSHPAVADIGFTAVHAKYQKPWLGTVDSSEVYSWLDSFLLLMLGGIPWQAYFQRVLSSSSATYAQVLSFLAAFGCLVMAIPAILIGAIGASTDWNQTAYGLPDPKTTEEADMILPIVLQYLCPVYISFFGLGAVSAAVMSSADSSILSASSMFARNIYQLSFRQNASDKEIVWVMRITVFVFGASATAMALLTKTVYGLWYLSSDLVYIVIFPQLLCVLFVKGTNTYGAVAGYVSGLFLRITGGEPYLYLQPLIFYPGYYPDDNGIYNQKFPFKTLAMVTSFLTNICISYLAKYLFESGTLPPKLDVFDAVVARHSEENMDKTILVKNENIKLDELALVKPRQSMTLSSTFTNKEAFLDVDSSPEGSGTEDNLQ

[2] = molecular target: T1, High affinity choline transporter 1; test: CHT inhibitors, dose response, cell-based, 5-point CRC, membrane potential dye (AID 504840); assay type: functional
[3] = molecular target: 26S proteasome non-ATPase regulatory subunit 14 (Homo sapiens, UniProt O00487); test: inhibition of proteasome subunit RPN11 – biochemical, fluorescence polarization, uHTS hits, confirmation (AID 602368); assay type: functional
26S proteasome non-ATPase regulatory subunit 14, sequence (O00487 whole entry): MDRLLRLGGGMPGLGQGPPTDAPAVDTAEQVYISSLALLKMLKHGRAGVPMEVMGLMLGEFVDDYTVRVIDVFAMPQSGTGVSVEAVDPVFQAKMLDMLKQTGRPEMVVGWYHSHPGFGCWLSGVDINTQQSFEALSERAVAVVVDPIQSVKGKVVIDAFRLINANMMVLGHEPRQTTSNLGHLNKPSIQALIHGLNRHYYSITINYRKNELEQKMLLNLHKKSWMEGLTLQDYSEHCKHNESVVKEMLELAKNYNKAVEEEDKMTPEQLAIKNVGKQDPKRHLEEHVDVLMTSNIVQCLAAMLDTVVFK

[4] = molecular target: 72 kDa type IV collagenase (Homo sapiens, UniProt P08253); test: Dose Response validation of uHTS RPN11 inhibitor hits using a MMP-2 Fluorescence assay.; assay type: functional
72 kDa type IV collagenase, sequence (P08253 whole entry): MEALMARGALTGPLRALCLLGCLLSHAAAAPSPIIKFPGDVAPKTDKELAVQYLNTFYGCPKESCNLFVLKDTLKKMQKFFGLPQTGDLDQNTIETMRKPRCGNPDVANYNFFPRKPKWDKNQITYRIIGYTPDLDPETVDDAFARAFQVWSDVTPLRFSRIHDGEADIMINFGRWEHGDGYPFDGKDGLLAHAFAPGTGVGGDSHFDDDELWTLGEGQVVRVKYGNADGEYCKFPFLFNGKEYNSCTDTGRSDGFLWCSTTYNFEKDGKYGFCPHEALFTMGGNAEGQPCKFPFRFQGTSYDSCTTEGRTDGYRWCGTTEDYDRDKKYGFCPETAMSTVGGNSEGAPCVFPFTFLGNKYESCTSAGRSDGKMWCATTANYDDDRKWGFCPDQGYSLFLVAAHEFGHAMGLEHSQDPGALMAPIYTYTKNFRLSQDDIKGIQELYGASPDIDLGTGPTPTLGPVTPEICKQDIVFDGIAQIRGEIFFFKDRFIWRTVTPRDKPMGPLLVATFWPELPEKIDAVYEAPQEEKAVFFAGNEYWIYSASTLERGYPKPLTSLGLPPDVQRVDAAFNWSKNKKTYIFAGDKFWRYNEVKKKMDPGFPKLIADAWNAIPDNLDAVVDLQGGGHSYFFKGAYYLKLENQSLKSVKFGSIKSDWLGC

[5] = molecular target: Prothrombin (Bos taurus, UniProt P00735); test: thrombin inhibition, dose response, biochemical, fluorescence polarization, uHTS hits (AID 602369); assay type: functional
[6] = AlphaScreen signal interference compounds, dose response, artefact control for ARNT-TACC3 interaction inhibitor project, biochemical, luminescence, cherry-pick (AID 651705); assay type: functional;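 also: AlphaScreen bead proximity signal that flags compounds interfering with the detection technology; potency reflects signal decrease which marks the compound as an assay artifact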
[7] = molecular target: T2, Carboxy-terminal domain RNA polymerase II polypeptide A small phosphatase 1 (Homo sapiens, UniProt Q9GZU7); test: inhibitors of CTDSP1, concentration-response testing, biochemical assay, absorbance-based, actives from ultra-high-throughput screening (AID 540297); assay type: functional
T2 sequence (Q9GZU7 whole entry): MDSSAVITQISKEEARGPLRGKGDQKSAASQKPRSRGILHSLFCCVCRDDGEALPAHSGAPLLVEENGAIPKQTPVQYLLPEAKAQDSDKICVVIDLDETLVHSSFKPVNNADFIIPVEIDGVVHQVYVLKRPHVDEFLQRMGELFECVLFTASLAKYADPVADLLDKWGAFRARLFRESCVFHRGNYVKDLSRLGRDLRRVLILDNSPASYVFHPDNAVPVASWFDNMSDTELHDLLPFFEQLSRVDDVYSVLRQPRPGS

[8] = molecular target: DNA (cytosine-5)-methyltransferase 1 (Homo sapiens, UniProt P26358); test: DNMT1 methyltransferase inhibitors, confirmation, biochemical, fluorescent molecular beacon (AID 602386); assay type: functional
[9] = molecular target: Estrogen receptor beta (Homo sapiens, UniProt Q92731); test: ERβ–SRC-3 coactivator interaction inhibitors, confirmation, orthogonal assay, biochemical, ELISA, streptavidin-HRP readout (AID 1060)
[10] = molecular target: T3, Fatty acid synthase (Homo sapiens, UniProt P49327); test: FAS thioesterase domain inhibitors, dose response, biochemical, endpoint fluorescence intensity, uHTS hits (AID 624327); assay type: functional;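 also: fluorescence from hydrolysis of an O-methyl fluorescein acyl ester substrate by the enzyme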
T3 sequence (P49327 whole entry, the tested form may be a part): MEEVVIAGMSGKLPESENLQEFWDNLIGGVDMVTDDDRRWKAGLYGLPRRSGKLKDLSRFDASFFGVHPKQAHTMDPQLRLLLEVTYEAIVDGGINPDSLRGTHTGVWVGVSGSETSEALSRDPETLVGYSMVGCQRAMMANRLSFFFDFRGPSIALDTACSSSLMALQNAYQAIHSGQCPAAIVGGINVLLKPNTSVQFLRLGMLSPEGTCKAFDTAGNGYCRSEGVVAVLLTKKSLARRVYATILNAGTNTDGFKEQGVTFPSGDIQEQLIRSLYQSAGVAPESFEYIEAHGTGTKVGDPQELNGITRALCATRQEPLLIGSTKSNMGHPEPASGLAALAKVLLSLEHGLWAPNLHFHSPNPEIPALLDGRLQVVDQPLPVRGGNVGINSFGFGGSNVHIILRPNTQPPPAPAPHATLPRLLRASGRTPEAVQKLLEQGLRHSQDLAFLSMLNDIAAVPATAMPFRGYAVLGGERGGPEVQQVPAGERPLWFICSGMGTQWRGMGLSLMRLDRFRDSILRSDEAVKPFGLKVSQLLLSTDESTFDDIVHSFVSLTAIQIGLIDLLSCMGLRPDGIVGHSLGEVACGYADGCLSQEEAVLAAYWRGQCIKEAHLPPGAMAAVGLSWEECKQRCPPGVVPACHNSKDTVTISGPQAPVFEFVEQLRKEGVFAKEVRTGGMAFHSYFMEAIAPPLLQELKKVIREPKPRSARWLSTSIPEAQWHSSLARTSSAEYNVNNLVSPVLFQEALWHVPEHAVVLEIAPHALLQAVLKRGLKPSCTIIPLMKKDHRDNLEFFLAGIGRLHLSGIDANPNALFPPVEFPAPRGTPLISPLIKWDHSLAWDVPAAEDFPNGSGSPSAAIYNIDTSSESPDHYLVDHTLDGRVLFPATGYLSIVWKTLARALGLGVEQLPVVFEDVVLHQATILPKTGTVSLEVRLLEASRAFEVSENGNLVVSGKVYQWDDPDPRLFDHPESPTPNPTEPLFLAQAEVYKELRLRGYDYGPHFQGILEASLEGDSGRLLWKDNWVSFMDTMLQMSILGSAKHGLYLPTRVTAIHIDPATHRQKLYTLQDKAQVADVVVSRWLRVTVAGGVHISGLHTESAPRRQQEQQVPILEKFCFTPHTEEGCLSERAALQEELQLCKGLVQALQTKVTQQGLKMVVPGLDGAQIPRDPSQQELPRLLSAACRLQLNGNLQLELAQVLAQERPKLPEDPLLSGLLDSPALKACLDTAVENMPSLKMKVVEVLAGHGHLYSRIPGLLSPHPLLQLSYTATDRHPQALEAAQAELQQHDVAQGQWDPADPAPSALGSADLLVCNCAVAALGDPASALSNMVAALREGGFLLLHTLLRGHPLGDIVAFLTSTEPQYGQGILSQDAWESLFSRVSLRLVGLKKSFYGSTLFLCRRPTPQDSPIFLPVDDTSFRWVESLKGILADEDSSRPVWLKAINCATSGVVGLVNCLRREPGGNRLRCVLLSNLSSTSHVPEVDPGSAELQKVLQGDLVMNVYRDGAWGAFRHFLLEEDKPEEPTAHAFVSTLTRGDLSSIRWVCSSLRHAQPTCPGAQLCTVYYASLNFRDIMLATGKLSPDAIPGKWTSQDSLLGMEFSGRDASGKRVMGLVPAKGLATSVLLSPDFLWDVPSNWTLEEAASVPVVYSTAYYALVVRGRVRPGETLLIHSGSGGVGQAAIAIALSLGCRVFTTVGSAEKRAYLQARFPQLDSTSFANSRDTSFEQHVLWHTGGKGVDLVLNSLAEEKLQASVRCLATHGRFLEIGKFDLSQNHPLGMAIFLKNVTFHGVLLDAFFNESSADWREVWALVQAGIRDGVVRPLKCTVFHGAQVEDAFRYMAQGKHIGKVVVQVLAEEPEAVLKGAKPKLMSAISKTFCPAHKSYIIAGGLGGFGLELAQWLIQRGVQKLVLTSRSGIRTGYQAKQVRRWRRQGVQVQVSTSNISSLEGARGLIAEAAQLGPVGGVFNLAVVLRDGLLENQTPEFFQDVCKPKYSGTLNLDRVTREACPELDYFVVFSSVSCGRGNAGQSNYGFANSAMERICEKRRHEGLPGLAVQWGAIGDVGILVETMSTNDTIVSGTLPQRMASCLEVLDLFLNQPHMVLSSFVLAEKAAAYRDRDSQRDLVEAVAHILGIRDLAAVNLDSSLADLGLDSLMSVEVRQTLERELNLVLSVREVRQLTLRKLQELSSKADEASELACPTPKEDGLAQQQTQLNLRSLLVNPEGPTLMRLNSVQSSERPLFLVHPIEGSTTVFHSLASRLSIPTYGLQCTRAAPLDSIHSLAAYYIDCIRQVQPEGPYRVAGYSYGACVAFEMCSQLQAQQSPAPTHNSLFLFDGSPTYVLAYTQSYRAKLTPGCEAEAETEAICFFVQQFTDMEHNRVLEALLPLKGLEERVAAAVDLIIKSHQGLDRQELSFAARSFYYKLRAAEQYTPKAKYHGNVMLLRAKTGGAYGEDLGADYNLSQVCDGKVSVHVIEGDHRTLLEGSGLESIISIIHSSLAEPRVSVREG

[11] = molecular target: T3, Fatty acid synthase; test: FAS thioesterase domain inhibitors, dose response, biochemical, kinetic fluorescence intensity (AID 624326); assay type: functional;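 also: rate of fluorescence rise from hydrolysis of a fluorogenic O-methyl fluorescein ester substrate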
[12] = HepG2 cell cytotoxicity, dose response, cytotoxicity control for Shn3 inhibitor project, CellTiter-Glo, cherry-picked (AID 624134); assay type: functional, cell-based
[13] = growth suppression of beta-catenin-knockout colon cells, dose response, cell-based, HCT116, human colon tumor (AID 1045); assay type: functional;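 also: HCT116 colon tumor cells with beta catenin knocked out; cells exposed to compound for 60 hours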
[14] = Shn3 3'UTR reporter inhibitors, dose response, cell-based, Clone20 osteoblasts, firefly luciferase, cherry-picked (AID 624132); assay type: functional;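 also: firefly luciferase luminescence from reporter carrying the Shn3 3'UTR in osteoblasts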
[15] = control 3'UTR Renilla luciferase suppression, dose response, counter-screen for Shn3 inhibitor project, cell-based, Clone20-Shn3RL, cherry-picked (AID 624133); assay type: functional
[16] = growth suppression of PTEN-null colon cells, dose response, cell-based, HCT116 PTEN knockout (AID 1047); assay type: functional;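 also: HCT116 colon tumor cells with PTEN knocked out; cells exposed to compound for 60 hours before readout; potency for loss of cell viability measured by luminescence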
[17] = molecular target: Protein Wnt-3a (Mus musculus, UniProt P27467); test: Wnt3a-driven reporter signaling inhibition, dose response, selectivity assay for Gli-SUFU antagonist project, Wnt-LIGHT cells, luminescence (AID 651570); assay type: functional; settings: read-out: IC50_Mean;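 also: Wnt-LIGHT reporter cells stimulated with conditioned medium from Wnt3a-producing cells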
Protein Wnt-3a, sequence (P27467 whole entry): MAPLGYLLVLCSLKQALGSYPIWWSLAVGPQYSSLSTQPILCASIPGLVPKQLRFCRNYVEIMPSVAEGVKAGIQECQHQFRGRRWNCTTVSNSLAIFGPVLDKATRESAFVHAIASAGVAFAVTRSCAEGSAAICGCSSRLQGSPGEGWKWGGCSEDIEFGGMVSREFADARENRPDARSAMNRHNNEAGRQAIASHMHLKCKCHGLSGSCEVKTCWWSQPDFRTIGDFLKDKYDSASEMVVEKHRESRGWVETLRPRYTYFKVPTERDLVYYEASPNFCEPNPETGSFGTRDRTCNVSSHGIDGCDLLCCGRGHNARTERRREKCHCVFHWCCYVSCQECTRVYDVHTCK

[18] = NIH-3T3 fibroblast cytotoxicity, dose response, cytotoxicity control for antifungal single agent project, cell-based, Alamar Blue, dry powder (AID 602188); assay type: functional
[19] = molecular target: T4, Apoptotic protease-activating factor 1 (Homo sapiens, UniProt O14727); test: SAR analysis of small molecule Activators of Apaf-1 in a Fluorescent assay.; assay type: functional; settings: read-out: EC50_Mean;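 also: caspase-3 cleavage of fluorogenic Rh110 DEVD substrate downstream of apoptosome activation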
T4 sequence (O14727 whole entry): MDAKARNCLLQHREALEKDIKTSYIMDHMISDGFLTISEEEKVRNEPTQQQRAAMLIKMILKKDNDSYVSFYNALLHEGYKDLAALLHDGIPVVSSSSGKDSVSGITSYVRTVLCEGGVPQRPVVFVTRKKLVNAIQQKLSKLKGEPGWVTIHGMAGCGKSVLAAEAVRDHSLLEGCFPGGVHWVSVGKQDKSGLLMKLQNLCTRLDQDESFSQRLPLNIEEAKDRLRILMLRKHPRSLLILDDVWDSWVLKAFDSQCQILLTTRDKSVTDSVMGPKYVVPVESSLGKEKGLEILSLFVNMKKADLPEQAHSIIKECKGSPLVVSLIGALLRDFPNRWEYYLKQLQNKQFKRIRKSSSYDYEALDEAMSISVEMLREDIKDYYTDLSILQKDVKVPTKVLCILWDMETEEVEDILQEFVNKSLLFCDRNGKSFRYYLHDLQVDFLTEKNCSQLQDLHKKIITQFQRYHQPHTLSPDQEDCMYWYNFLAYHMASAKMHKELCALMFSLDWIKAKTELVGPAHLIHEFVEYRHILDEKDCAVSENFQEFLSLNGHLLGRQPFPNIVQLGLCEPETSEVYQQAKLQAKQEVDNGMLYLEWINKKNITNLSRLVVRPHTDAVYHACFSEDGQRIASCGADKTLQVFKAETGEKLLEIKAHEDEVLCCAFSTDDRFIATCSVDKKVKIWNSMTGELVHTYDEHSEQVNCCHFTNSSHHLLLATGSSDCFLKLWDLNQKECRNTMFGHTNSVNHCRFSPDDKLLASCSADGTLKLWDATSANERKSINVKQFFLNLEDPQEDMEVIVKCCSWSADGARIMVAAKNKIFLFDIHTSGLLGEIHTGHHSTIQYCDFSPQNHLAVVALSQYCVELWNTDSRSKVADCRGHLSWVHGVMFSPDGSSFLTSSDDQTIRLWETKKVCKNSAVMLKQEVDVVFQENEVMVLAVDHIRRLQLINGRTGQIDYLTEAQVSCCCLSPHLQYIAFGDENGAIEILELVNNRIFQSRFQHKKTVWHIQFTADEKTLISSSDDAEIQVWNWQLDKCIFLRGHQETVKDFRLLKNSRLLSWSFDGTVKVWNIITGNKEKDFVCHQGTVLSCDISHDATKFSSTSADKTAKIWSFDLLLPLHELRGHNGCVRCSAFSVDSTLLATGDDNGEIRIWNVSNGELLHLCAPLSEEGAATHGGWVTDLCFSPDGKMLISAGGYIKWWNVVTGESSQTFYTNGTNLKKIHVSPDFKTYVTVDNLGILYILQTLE

[20] = molecular target: Hepatocyte nuclear factor 4-alpha (Homo sapiens, UniProt P41235); assay type: functional, cell-based;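 also: biochemical luminescence-based dose-response counterscreen measuring inhibition of HNF4 dimerization, run alongside a screen for blockers of ABHD5–perilipin-5 interaction; split luciferase complementation of HNF4 fusion proteins in cell lysate measuring dimerization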
Hepatocyte nuclear factor 4-alpha, sequence (P41235 whole entry, the tested form may be a part): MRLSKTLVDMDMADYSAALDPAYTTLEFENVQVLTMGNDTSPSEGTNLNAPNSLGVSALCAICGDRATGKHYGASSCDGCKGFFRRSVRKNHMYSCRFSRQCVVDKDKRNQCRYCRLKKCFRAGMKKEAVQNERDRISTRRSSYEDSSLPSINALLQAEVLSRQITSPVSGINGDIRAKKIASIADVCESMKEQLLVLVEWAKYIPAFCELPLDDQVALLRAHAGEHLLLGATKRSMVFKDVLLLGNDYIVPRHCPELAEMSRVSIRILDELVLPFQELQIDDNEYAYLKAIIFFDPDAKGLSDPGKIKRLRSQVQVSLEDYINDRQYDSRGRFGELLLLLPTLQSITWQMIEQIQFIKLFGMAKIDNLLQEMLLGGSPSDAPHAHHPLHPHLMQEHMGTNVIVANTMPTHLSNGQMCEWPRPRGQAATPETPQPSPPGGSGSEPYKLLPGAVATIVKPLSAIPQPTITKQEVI

[21] = molecular target: T5, Rac GTPase-activating protein 1 (Homo sapiens, UniProt Q9H0H5); test: MgcRacGAP GTPase-activating activity inhibitors, confirmation, biochemical, ADP Hunter fluorescence, primary and confirmatory (AID 624330); assay type: functional
T5 sequence (Q9H0H5 whole entry): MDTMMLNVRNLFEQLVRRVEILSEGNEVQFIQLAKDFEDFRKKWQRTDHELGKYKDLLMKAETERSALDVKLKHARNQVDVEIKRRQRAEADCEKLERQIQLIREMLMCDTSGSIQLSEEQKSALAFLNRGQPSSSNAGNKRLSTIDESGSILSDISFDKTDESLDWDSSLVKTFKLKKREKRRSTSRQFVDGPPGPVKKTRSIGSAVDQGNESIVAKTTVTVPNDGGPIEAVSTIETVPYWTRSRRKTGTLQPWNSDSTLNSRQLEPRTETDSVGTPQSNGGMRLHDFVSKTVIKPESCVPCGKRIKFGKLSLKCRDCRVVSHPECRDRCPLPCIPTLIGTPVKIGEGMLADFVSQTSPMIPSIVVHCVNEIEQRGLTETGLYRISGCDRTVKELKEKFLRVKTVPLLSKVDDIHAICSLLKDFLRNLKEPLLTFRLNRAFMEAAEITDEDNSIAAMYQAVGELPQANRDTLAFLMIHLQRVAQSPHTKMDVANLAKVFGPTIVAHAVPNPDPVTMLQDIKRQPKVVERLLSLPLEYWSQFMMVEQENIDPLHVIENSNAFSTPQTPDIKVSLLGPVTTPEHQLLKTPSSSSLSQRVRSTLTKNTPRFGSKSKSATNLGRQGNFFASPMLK

[22] = molecular target: DNA repair and recombination protein RAD54-like (Homo sapiens, UniProt Q92698); test: inhibitors of human RAD54 branch migration, confirmation, biochemical, fluorescence, cherry-picked samples, dose series (AID 651657); assay type: functional
DNA repair and recombination protein RAD54-like, sequence (Q92698 whole entry): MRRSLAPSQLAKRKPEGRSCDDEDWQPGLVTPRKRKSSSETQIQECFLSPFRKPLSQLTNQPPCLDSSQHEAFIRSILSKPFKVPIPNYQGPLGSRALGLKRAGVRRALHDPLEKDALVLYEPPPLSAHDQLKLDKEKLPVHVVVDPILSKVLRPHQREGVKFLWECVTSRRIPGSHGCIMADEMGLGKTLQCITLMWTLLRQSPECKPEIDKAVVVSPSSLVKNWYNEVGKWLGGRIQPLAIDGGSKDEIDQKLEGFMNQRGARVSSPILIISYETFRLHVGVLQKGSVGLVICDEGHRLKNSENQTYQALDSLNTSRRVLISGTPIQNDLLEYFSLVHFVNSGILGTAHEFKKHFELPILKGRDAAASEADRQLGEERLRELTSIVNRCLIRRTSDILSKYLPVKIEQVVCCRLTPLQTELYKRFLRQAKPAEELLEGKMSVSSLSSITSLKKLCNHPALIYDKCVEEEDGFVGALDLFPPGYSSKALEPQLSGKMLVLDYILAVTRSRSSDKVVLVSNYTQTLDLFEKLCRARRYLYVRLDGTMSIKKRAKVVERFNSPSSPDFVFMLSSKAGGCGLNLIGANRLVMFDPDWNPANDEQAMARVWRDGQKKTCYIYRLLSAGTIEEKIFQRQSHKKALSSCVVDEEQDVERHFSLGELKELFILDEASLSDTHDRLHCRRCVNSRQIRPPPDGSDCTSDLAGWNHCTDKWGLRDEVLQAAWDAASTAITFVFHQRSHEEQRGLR

[23] = HeLa 2N DNA content increase, dose response, cell-based, IC50 (AID 1117349); assay type: functional
[24] = HeLa 4N DNA content increase, dose response, cell-based, IC50 (AID 1117351); assay type: functional
[25] = molecular target: T6, DNA repair protein RAD52 homolog (Homo sapiens, UniProt P43351); assay type: functional, biochemical
T6 sequence (P43351 whole entry): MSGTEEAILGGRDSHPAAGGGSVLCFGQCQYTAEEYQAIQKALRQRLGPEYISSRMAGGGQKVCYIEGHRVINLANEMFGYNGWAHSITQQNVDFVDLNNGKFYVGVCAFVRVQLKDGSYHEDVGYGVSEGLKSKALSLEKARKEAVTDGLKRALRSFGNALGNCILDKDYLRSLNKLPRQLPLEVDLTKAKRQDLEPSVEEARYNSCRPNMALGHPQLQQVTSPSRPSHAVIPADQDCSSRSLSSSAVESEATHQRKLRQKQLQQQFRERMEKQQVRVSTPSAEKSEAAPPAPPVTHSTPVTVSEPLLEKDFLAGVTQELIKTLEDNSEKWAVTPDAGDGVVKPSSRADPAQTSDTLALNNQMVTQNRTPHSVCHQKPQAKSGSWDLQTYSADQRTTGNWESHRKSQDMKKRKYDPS

SMILES: CC(=O)[C@H]1[C@@H]2C(=O)N(c3cccc(Cl)c3)C(=O)[C@@H]2[C@H]2c3ccccc3C=CN21
AC50 [6]: 122 µM (active)

SMILES: CCCCn1c(CN2CCN(c3ccccc3)CC2)nc2c1c(=O)n(C)c(=O)n2C
IC50 [10]: 15.3 µM (active)
IC50 [11]: 21.5 µM (inactive)
IC50 [1]: 1.96 µM (active)
AC50 [12]: 6.34 µM (active)
EC50 [13]: 21.9 µM (active)
AC50 [14]: 2.05 µM (active)
AC50 [15]: 1.27 µM (active)
EC50 [16]: 38.9 µM (active)
IC50 [2]: 4.27 µM (active)

SMILES: Oc1c(C(c2ccc(Cl)cc2)N2CCCC2)ccc2cccnc12 (stereo not given)
AC50 [18]: 1.71 µM (active)

SMILES: CCN(CC)CCNc1ccc(CO)c2sc3ccccc3c(=O)c12 [HYCANTHONE]
AC50 [22]: 6.95 µM (active)
IC50 [23]: 5.68 µM (inactive)
IC50 [24]: > 10 µM (inactive)
AC50 [25]: 9.33 µM (active)

The next lines start with the values.

IC50 [1]: 6.96 µM (active)
IC50 [2]: 10.3 µM (active)
SMILES: CCCC(=O)NC(=S)Nc1cccc(NC(=O)c2ccccc2Cl)c1

IC50 [3]: 69 µM (active)
IC50 [4]: > 100 µM (inactive)
IC50 [5]: 47.8 µM (active)
SMILES: CCC(C)Sc1ccc([C@@H]2[C@H]3C(=O)N(CC)C(=O)[C@H]3[C@]3(C(=O)OC)CCCCN23)cc1 (stereo not given in full)

IC50 [7]: 4.1 µM (active)
IC50 [3]: 16.3 µM (active)
IC50 [8]: 11 µM (active)
IC50 [4]: 29.3 µM (active)
IC50 [5]: 33.9 µM (active)
IC50 [9]: > 50 µM (not active)
SMILES: Cc1ccc(C(=O)O)cc1-c1ccc(/C=C2/NC(=O)N(c3ccccc3)C2=O)o1

IC50 [17]: 8.54 µM (active)
SMILES: O=C(N[C@@H]1C/C=C\C[C@H](CC(=O)N(CCO)Cc2ccccc2)C(=O)N[C@@H](Cc2c[nH]c3ccccc23)COC1=O)OCC1c2ccccc2-c2ccccc21

EC50 [19]: > 100 µM (inactive)
SMILES: O=C(O)c1coc(-c2cc3ccccc3s2)n1

IC50 [20]: 4.45 µM (active)
IC50 [21]: 65.3 µM (active)
SMILES: CC1(C)C2CCC(CN=C(N)CSS(=O)(=O)O)C1C2 (stereo not given)
